Reference: patent publication US8076369B2, “N-alkyl-hydroxamic acid-isoindolyl compounds and their pharmaceutical uses” (Celgene Corporation, priority 2003, dated 2011)

For CCOc1cc([C@@H](CCN(C=O)OC(C)=O)N2Cc3cccc(NC(=O)C(C)C)c3C2=O)ccc1OC [Example 11, (1R)—N-{2-[3-(N-Acetoxy-N-formyl-amino)-1-(3-ethoxy-4-methoxy-phenyl)-propyl]-3-oxo-2,3-dihydro-1H-Isoindol-4-yl}-Isobutyramide], the melting point was 72 to 74 °C. CCOc1cc([C@@H](CCNO)N2Cc3cccc(NC(=O)C4CC4)c3C2=O)ccc1OC [Example 6, (3R)-Cyclopropanecarboxylic acid {2-[1-(3-ethoxy-4-methoxy-phenyl)-3-hydroxyamino-propyl]-3-oxo-2,3-dihydro-1H-Isoindol-4-yl}-amide] showed a melting point of 136 to 138 °C. Work on CCOc1cc([C@@H](CCN(O)C(N)=O)N2Cc3cccc(NC(=O)C(C)C)c3C2=O)ccc1OC [Example 12, (1R)—N-{2-[3-(N-Aminocarbonyl-N-hydroxy-amino)-1-(3-ethoxy-4-methoxy-phenyl)-propyl]-3-oxo-2,3-dihydro-1H-Isoindol-4-yl}-Isobutyramide] yielded a melting point of 137 to 139 °C. CCOc1cc(C(CCN(OC(C)=O)C(C)=O)N2Cc3cccc(NC(=O)C4CC4)c3C2=O)ccc1OC (stereo not drawn) [Example 14] gave a melting point of 123 to 125 °C. For CCOc1cc([C@@H](CCO)N2Cc3cccc(NC(=O)C4CC4)c3C2=O)ccc1OC [Example 1, (1R)-Cyclopropanecarboxylic acid {2-[1-(3-ethoxy-4-methoxy-phenyl)-3-hydroxy-propyl]-3-oxo-2,3-dihydro-1H-Isoindol-4-yl}-amide], the melting point was 103 to 105 °C. CCOc1cc([C@@H](CCN(O)C=O)N2Cc3cccc(NC(=O)C(C)C)c3C2=O)ccc1OC [Example 9, (1R)—N-{2-[1-(3-Ethoxy-4-methoxy-phenyl)-3-(N-formyl-N-hydroxy-amino)-propyl]-3-oxo-2,3-dihydro-1H-Isoindol-4-yl}-Isobutyramide] gave a melting point of 81 to 83 °C. Compound CCOc1cc(C(CCN(OC(=O)OC(C)(C)C)C(=O)OC(C)(C)C)N2Cc3cccc(N)c3C2=O)ccc1OC (stereo not drawn) [Example 5, N-[3-(7-Amino-1-oxoisoindolin-2-yl)-3-(3-ethoxy-4-methoxyphenyl)propyl](tert-butoxy)carbonylamino (tert-butoxy)formate] has a melting point of 85 to 87 °C. CCOc1cc([C@@H](CCN(O)C=O)N2Cc3cccc(NC(C)=O)c3C2=O)ccc1OC [Example 8, (1R)—N-{2-[1-(3-Ethoxy-4-methoxy-phenyl)-3-(N-formyl-N-hydroxy-amino)-propyl]-3-oxo-2,3-dihydro-1H-Isoindol-4-yl}-acetamide] gave a melting point of 79 to 81 °C. For CCOc1cc(C(CCN(OC(=O)OC(C)(C)C)C(=O)OC(C)(C)C)N2Cc3cccc(NC(=O)C4CC4)c3C2=O)ccc1OC [Example 4, (3R)-(tert-Butoxy)-N-{3-[7-(cyclopropylcarbonylamino)-1-oxoisoindolin-2-yl]-3-(3-ethoxy-4-methoxyphenyl)propyl}carbonylamino(tert-butoxy)formate], the melting point was 153 to 155 °C. For CCOc1cc([C@@H](CCN(O)C=O)N2C(=O)c3cccc(NC(C)=O)c3C2=O)ccc1OC [Example 10, (1R)—N-{2-[1-(3-Ethoxy-4-methoxy-phenyl)-3-(N-formyl-N-hydroxy-amino)-propyl]-1,3-dioxo-2,3-dihydro-1H-Isoindol-4-yl}-acetamide], the melting point was 96 to 98 °C. Compound CCOc1cc([C@@H](CC(C)N(O)C=O)N2Cc3cccc(NC(=O)C4CC4)c3C2=O)ccc1OC (stereo partly drawn) [Example 15, (1R)-Cyclopropanecarboxylic acid {2-[1-(3-ethoxy-4-methoxy-phenyl)-3-(formyl-hydroxy-amino)-butyl]-3-oxo-2,3-dihydro-1H-Isoindol-4-yl}-amide] has a melting point of 142 to 144 °C. For CCOc1cc([C@@H](CCN(O)C=O)N2Cc3cccc(NC(=O)C4CC4)c3C2=O)ccc1OC [Example 7, (1R)-Cyclopropanecarboxylic acid {2-[1-(3-ethoxy-4-methoxy-phenyl)-3-(N-formyl-N-hydroxy-amino)-propyl]-3-oxo-2,3-dihydro-1H-Isoindol-4-yl}-amide], the melting point was 102 to 104 °C.
